Usually IC50 stands for the point on the concentration scale where inhibition reaches its midpoint.

The values that follow come from PMC10552532, “Evaluation of anti-cancer effects of carnosine and melittin-loaded niosomes in MCF-7 and MDA-MB-231 breast cancer cells” (Frontiers in Pharmacology, 2023).

Data set [1] can be described thus: In vitro drug release from dialysis bag. It counts as physicochemical. Particulars: first 6 h, pH 5.4, 37°C. As for the experimental part: A dialysis bag (MWCO = 12 kDa) was used to compare 2 mL of free drugs, Car-NIO and Mel-NIO for drug release (in vitro). This bag was placed in a phosphate buffered saline (PBS) solution (50 mL, 1X, pH = 5.4) with slow stirring (50 rpm) at 37°C. At certain intervals, a portion of the PBS solution was removed and replaced with a new aliquot.

The test system of data set [2] is MCF-7 cells. The data set can be described thus: MTT cytotoxicity assay. It counts as cell-based. Particulars: Homo sapiens, MCF7, MCF-7, 48 h, read-out: IC50 (viability). As for the experimental part: (§1) The 3-(4,5-dimethylthiazol-2-yl)-2,5-diphenyl-2H-tetrazolium bromide (MTT) assay is a colorimetric method that uses the transformation of yellow MTT into purple formazan. The following procedures were carried out in a clean environment using MTT Assay Kit (Cell Proliferation) (catalog number: ab211091, Abcam, United Kingdom), with the use of a Laminar flow cabinet meeting biosafety standard II (Baker, SG403INT, Sanford, ME, United States), l0^4 cells/well were subjected to varying doses of Car-NIO (5, 10, 25, 50, and 100 μM) ([Tehrani et al., 2018]) and Mel-NIO (5, 10, 25, 50, and 100 μM) ([Yaacoub et al., 2021]) and olaparib (5, 10, 25, 50, and 100 μM) ([Ashmawy et al., 2017]). After 48 h, we added 2.5 μg/mL of MTT to each well and incubated the plates at 37°C for another 4 h. After the formation of formazan crystals, 10% sodium dodecyl sulfate (200 μL/well) was used to dissolve the crystals. We measured the absorbance at 595 nm, and a positive control that causes 100% mortality under the same conditions was utilized. Using the following formula, the change in viability was given as a percentage was calculated: Cytotoxicity %=Extract reading/Negative control reading x100
(§2) Viability % = 100- Cytotoxicity%, The impact of each treatment is measured by its IC50 (the concentration at which 50% of the viability is inhibited).
Background: Tetrazolium dyes change colour on reduction, which living cells bring about.

For data set [3], the system named is MDA-MB-231 cells. The data set can be described thus: MTT cytotoxicity assay. It counts as cell-based. The settings on record: Homo sapiens, MDA-MB-231, 48 h, read-out: IC50 (viability). The method, then:
as §1, §2

Data set [4] deals with MCF-7 cells. Briefly: Quantitative RT-PCR of marker genes. It is filed as cell-based. Particulars: MCF-7, vs untreated cancer cells. The text has this: (§3) The cells’ total RNA was extracted with the help of the RNA Mini Kit from Ambion by Life Technologies by Thermo Scientific (catalog number: 12183018A). To ensure the integrity of the RNA samples, we used a NanoDrop® ND-1000 Spectrophotometer from NanoDrop Technologies in Wilmington, Delaware, United States A High Capacity cDNA Reverse Transcription Kit (catalog number: 4374966) from Thermo Scientific was then used to amplify the cDNA. The Maxima SYBR Green qPCR Master Mix (2X) kit from Thermo Scientific, (catalog number: K0251), was used for real-time PCR amplification ([Shehata et al., 2018]). The housekeeping GADPH (for mRNA) or U6 (for miRNA) were used as a standard. The 2^−∆∆ct formula was used to calculate the levels of target gene expression ([Livak and Schmittgen, 2001]). Table 1 contains the sequences of the desired gene primers.

For data set [5], the system named is MDA-MB-231 cells. The data set can be described thus: Quantitative RT-PCR of marker genes. It is filed as cell-based. Particulars: MDA-MB-231, vs untreated cancer cells.
Text: as §3

Data set [6] relates to MCF-7 cells. The data set can be described thus: Lipid peroxidation (MDA) detection. It is filed as cell-based. The settings on record: MCF-7, 48 h at IC50 concentration, vs untreated cancer cells. As for the experimental part: (§4) For this assay, the cells (2 × 10^6 cells/mL) were seeded onto 96-well culture plates to determine lipid peroxidation levels. Following a 48-h incubation with Car-NIO (48.83, 51.4 μM), Mel-NIO (21.23, 43.65 μM), and olaparib (23.31, 32.55 μM), cells were collected and washed twice with phosphate-buffered saline. The cells were harvested with a sonicator probe (VCX-130 W, Newtown, United States) on ice, and then disrupted by ultra-sonication for 5 s. Following the manufacturer’s guidelines for best results, the malondialdehyde (MDA) was detected in the cell extract using the MDA test kit (catalog number: ab287797, Abcam, United Kingdom). The microplate reader was used to determine the MDA concentration at a wavelength of 532 nm (Tecan, Mannedorf, Switzerland) ([Gérard-Monnier et al., 1998]).

Data set [7] deals with MDA-MB-231 cells. The data set can be described thus: Lipid peroxidation (MDA) detection. It counts as cell-based. Particulars: MDA-MB-231, 48 h at IC50 concentration, vs untreated cancer cells. The method, then:
as §4

In data set [8] the test system is MCF-7 cells. The data set can be described thus: Cell cycle distribution by flow cytometry (propidium iodide). It counts as cell-based. The settings on record: MCF-7, 48 h at IC50 concentration. The method, then: (§5) Overnight, the cells were cultured in 100-mm plates at a density of 2 × 10^6 cells/mL per well using fresh culture media. Treatment with Car-NIO (48.83, 51.4 μM), Mel-NIO (21.23, 43.65 μM), and olaparib (23.31, 32.55 μM) for 48 h began the next day. After harvesting, the cells were fixed in 70% ethanol at […] for 12 h. After that, the cells were exposed to RNase (10 mg/mL) and propidium iodide (50 μg/mL) for 30 min. The cell cycle distribution was analyzed using flow cytometry, and the data were analyzed using FlowJo (TreeStar, Ashland, OR, United States) ([Mei et al., 2019]).

The test system of data set [9] is MDA-MB-231 cells. The data set is described as above. It counts as cell-based. The settings on record: MDA-MB-231, 48 h at IC50 concentration. The method, then: as §5
The test system of data set [10] is human epidermal growth factor receptor 2-negative, metastatic breast cancer and a hereditary BRCA mutation. The arrangement: method as in Tutt et al., 2021. Particulars: olaparib monotherapy rather than the standard treatment; ref Tutt et al., 2021; cited from earlier work.

Compound `NCCC(=O)N[C@@H](Cc1cnc[nH]1)C(=O)O` [carnosine, β-alanyl-L-histidine] yielded a drug release in [1] of 43%.
Consider `O=C(c1cc(Cc2n[nH]c(=O)c3ccccc23)ccc1F)N1CCN(C(=O)C2CC2)CC1` [olaparib], for which, in the data set with MCF-7 cells [2], the 50% inhibitory concentration (IC50) was found to be 23.3 µM. The IC50 in the data set with MDA-MB-231 cells [3] came out at 32.5 µM. For the same compound, the “expression level of miRNA-183” value in the data set with MCF-7 cells [4] (U6 as standard) is listed as “significant downregulation”. Besides, in the data set with MCF-7 cells [4] (relative to GADPH), the “expression level of Bcl2” value is “significant downregulation”, the “expression level of FOXO3” value was “significantly upregulated”, the “expression level of PARP 1” value is on record as “significant downregulation” and the “expression level of PDCD4” value is “significantly upregulated”. Moreover, in the data set on MCF-7 cells [4] (relative to GADPH), the “mRNA expression of Bax” value is reported as “significant upregulation”, the “mRNA expression of P53” value is recorded as “significant upregulation”, the “mRNA expression of caspase-3” value was “significant upregulation” and the “mRNA expression of caspase-9” value is reported as “significant upregulation”. Moreover, the “expression level of miRNA-183” value in the data set with MDA-MB-231 cells [5] (U6 as standard) was “significant downregulation”. In the data set with MDA-MB-231 cells [5] (relative to GADPH), the “expression level of Bcl2” value is “significant downregulation”, the “expression level of FOXO3” value is “significantly upregulated”, the “expression level of PARP 1” value was “significant downregulation” and the “expression level of PDCD4” value is given as “significantly upregulated”. In addition, in the data set on MDA-MB-231 cells [5] (relative to GADPH), the “mRNA expression of Bax” value is listed as “significant upregulation”, the “mRNA expression of P53” value is given as “significant upregulation”, the “mRNA expression of caspase-3” value is reported as “significant upregulation” and the “mRNA expression of caspase-9” value was “significant upregulation”. The MDA level result in the data set with MCF-7 cells [6] is on record as “significant downregulation”. Besides, the MDA level result with MDA-MB-231 cells [7] is listed as “significant downregulation”. Besides, in the data set with MCF-7 cells [8], the “cells in G0/1 phase” value came to 63.2% and the “cells in S phase” value came to 8.6%. Besides, in the data set on MDA-MB-231 cells [9], the “cells in G0/1 phase” value was 83.0% and the “cells in S phase” value is 3.2%. In addition, in [10], the “extension of median progression-free survival” value is 2.8 months.
Consider melittin, for which the drug release in data set [1] is 72.3%.
